Measurements published in US20070249607A1, “NK-1 AND SEROTONIN TRANSPORTER INHIBITORS” (Bristol-Myers Squibb Company, priority 2006, published 2007).
pIC50: −log10 of the molar value. Where two headings read alike, the source gives them in different places.

Experiments:
[1] = molecular target: T1, neurokinin-1 (NK-1) receptor (Homo sapiens, UniProt P25103); experiment: NK-1 Binding assay ([125I] Substance P competition, U373 cell membranes); conditions: U373 membranes, [125I] Substance P displacement, read-out: NK-1 IC50
T1 construct: a human glioblastoma-astrocytoma cell line that endogenously expresses the neurokinin-1 (NK-1) receptor; endogenous in cells; host or cells: U373 human glioblastoma-astrocytoma cells (membranes)
How it was run: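 Membranes were prepared from U373 human glioblastoma-astrocytoma cells, which express NK-1 endogenously, in 50 mM Tris-HCl pH 7.4 with 3 mM MnCl2, BSA and protease inhibitors. IC50 taken as the midpoint of the specific-binding displacement curve.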

[2] = molecular target: T2, human serotonin transporters (Homo sapiens, UniProt P31645); experiment: Serotonin transporter binding assay ([3H]-citalopram competition, HEK-hSERT cell membranes)
T2 construct: expressed in transfected cells
How it was run: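 Competition binding against 1 nM [3H]-citalopram (1 hr, 25 °C, Tris pH 7.4 with NaCl/KCl) on stably transfected HEK-hSERT cell membranes, bound ligand collected on filters. Fluoxetine (10 μM) defined nonspecific binding; curve midpoint gives IC50, convertible to Ki by Cheng–Prusoff.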

[3] = Table 1, HEK-hSERT membranes, [3H]-citalopram displacement, read-out: SERT IC50
[4] = Table 2, HEK-hSERT membranes, [3H]-citalopram displacement, read-out: SERT IC50

T1 sequence (P25103 whole entry): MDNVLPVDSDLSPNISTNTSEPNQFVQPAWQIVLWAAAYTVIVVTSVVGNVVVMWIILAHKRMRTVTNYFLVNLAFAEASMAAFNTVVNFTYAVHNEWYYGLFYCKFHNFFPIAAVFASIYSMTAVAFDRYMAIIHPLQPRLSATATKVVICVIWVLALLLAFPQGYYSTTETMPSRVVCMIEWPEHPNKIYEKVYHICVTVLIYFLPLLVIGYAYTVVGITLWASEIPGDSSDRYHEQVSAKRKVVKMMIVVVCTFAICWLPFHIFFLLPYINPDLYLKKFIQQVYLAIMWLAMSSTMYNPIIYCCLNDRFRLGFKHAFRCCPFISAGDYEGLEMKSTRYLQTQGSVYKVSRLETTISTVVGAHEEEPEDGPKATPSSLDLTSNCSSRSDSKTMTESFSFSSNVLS
T2 sequence (P31645 whole entry): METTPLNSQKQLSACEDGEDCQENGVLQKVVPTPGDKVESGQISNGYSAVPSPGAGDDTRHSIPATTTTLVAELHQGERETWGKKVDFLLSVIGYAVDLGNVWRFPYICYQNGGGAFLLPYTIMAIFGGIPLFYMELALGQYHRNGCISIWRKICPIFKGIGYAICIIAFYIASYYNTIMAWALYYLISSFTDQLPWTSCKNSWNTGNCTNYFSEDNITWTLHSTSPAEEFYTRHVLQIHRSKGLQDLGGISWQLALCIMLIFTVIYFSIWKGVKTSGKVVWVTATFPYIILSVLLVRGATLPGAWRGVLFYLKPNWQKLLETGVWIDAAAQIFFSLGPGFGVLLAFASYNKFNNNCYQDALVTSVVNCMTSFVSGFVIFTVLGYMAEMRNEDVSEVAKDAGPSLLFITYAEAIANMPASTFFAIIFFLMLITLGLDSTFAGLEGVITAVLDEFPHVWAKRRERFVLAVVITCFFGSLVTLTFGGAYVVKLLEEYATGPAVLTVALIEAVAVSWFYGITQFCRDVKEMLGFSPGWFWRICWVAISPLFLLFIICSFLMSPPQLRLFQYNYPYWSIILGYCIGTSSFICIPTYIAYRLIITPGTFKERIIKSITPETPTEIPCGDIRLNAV

Compound	pIC50 ([1]; Table 1)	pIC50 [2, 3]	pIC50 ([1]; Table 2)	pIC50 [2, 4]	pIC50 [2]
FC(F)(F)c1cc(COCC2(c3ccccc3)CCNCC2)cc(-c2ccncc2Cl)c1	7.00 to 11.00	7.00 to 11.00	–	–	–
COC(=O)c1ccc(-c2cc(COCC3(c4ccccc4)CCNCC3)cc(C(F)(F)F)c2)cc1	–	–	7.00 to 11.00	7.00 to 11.00	–
FC(F)(F)c1cc(COCC2(c3ccccc3)CCNCC2)cc(-c2cccc3c2oc2ccccc23)c1	< 6.52	7.00 to 11.00	–	–	–
CN1CCC(COCc2cc(F)cc(-c3ccc(C#N)cc3)c2)(c2ccccc2)CC1	–	–	7.00 to 11.00	–	7.00 to 11.00
Nc1ccc(-c2cc(COCC3(c4ccccc4)CCNCC3)cc(C(F)(F)F)c2)cn1	7.00 to 11.00	7.00 to 11.00	–	–	–
FC(F)(F)c1cc(COCC2(c3ccccc3)CCNCC2)cc(-c2cc(Cl)ccc2Cl)c1	–	–	< 6.52	7.00 to 11.00	–
Fc1cc(-c2cc(COCC3(c4ccccc4)CCNCC3)cc(C(F)(F)F)c2)ccc1-c1ccccc1	< 6.52	7.00 to 11.00	–	–	–
FC(F)(F)c1cc(COCC2(c3ccccc3)CCNCC2)cc(-c2cccnc2Cl)c1	7.00 to 11.00	7.00 to 11.00	–	–	–
N#Cc1ccc(-c2cc(COCC3(c4ccc(F)cc4-c4ccccc4)CCNCC3)cc(C(F)(F)F)c2)cc1	–	–	7.00 to 11.00	6.52 to 7.00	–
CN1CCC(COCc2cc(-c3ccc(C#N)cc3)cc(C(F)(F)F)c2)(c2cccnc2)CC1	–	–	7.00 to 11.00	–	7.00 to 11.00
FC(F)(F)c1cc(COCC2(c3ccccc3)CCNCC2)cc(-c2cccc3cccnc23)c1	6.52 to 7.00	7.00 to 11.00	–	–	–
CN1CCC(COCc2cc(-c3ccc(C#N)cc3)cc(C(F)(F)F)c2)(c2ccncc2)CC1	–	–	7.00 to 11.00	–	7.00 to 11.00
CCCCCc1ccc(-c2cc(COCC3(c4ccccc4)CCNCC3)cc(C(F)(F)F)c2)cc1	7.00 to 11.00	6.52 to 7.00	–	–	–
COc1ccc(Cl)cc1-c1cc(COCC2(c3ccccc3)CCNCC2)cc(C(F)(F)F)c1	< 6.52	7.00 to 11.00	–	–	–
CCCCOc1ccc(-c2cc(COCC3(c4ccccc4)CCNCC3)cc(C(F)(F)F)c2)cc1	–	–	7.00 to 11.00	7.00 to 11.00	–
FC(F)(F)c1cc(COCC2(c3ccccc3)CCNCC2)cc(-c2ccc3c(c2)OCO3)c1	7.00 to 11.00	7.00 to 11.00	–	–	–
CN1CCC(COCc2cc(-c3ccc(C#N)cc3)cc(C(F)(F)F)c2)(c2ccc(C#N)cc2)CC1	–	–	7.00 to 11.00	–	7.00 to 11.00

Compound	pIC50 ([1]; Table 1)	pIC50 [2, 3]	pIC50 ([1]; Table 2)	pIC50 [2, 4]	pIC50 [2]
Fc1cc(-c2cc(COCC3(c4ccccc4)CCNCC3)cc(C(F)(F)F)c2)cc(F)c1F	–	–	7.00 to 11.00	7.00 to 11.00	–
FC(F)(F)c1cc(COCC2(c3ccccc3)CCNCC2)cc(-c2ccc(Cl)nc2Cl)c1	7.00 to 11.00	7.00 to 11.00	–	–	–
Oc1ccc(-c2cc(COCC3(c4ccccc4)CCNCC3)cc(C(F)(F)F)c2)cc1	7.00 to 11.00	7.00 to 11.00	–	–	–
Fc1ccc(-c2cc(COCC3(c4ccccc4)CCNCC3)cc(C(F)(F)F)c2)cc1F	7.00 to 11.00	7.00 to 11.00	–	–	–
CN1CCC(COCc2cc(-c3ccc(C#N)cc3)cc(C(F)(F)F)c2)(c2ccccc2)CC1	7.00 to 11.00	–	–	–	7.00 to 11.00
C[C@@H](OCC1(c2ccccc2)CCNCC1)c1cc(-c2ccc(C#N)cc2)cc(C(F)(F)F)c1	7.00 to 11.00	7.00 to 11.00	–	–	–
N#Cc1ccc(-c2cc(COCC3(c4ccccc4)CCNCC3)cc(C(F)(F)F)c2)nc1	–	–	7.00 to 11.00	7.00 to 11.00	–
Nc1cccc(-c2cc(COCC3(c4ccccc4)CCNCC3)cc(C(F)(F)F)c2)c1	7.00 to 11.00	7.00 to 11.00	–	–	–
FC(F)(F)c1cc(COCC2(c3ccccc3)CCNCC2)cc(-c2ccc3cnccc3c2)c1	6.52 to 7.00	7.00 to 11.00	–	–	–
COc1c(F)cc(-c2cc(COCC3(c4ccccc4)CCN(C)CC3)cc(C(F)(F)F)c2)cc1F	–	–	7.00 to 11.00	–	7.00 to 11.00
Fc1cccc(-c2cc(COCC3(c4ccccc4)CCNCC3)cc(C(F)(F)F)c2)c1F	–	–	7.00 to 11.00	7.00 to 11.00	–
FC(F)(F)c1cccc(-c2cc(COCC3(c4ccccc4)CCNCC3)cc(C(F)(F)F)c2)c1	7.00 to 11.00	7.00 to 11.00	–	–	–
CN1CCC(COCc2cc(-c3ccc(C#N)cc3)cc(C(F)(F)F)c2)(c2ccc(F)c(F)c2)CC1	–	–	7.00 to 11.00	–	7.00 to 11.00
FC(F)(F)c1cc(COCC2(c3ccccc3)CCNCC2)cc(-c2ccc(C3CCNCC3)nc2)c1	–	–	< 6.52	7.00 to 11.00	–
Fc1cnc(Cl)c(-c2cc(COCC3(c4ccccc4)CCNCC3)cc(C(F)(F)F)c2)c1	–	–	6.52 to 7.00	7.00 to 11.00	–
COc1c(C)cc(-c2ccc(C#N)cc2)cc1COCC1(c2ccccc2)CCNCC1	–	–	7.00 to 11.00	7.00 to 11.00	–
Cc1ccc(-c2cc(COCC3(c4ccccc4)CCNCC3)cc(C(F)(F)F)c2)c2ccccc12	–	–	< 6.52	6.52 to 7.00	–
